What all share (type): functional
One assay deals with SF-268. The assay can be described thus: Cytotoxicity against human SF268 cells.
A further assay concerns NCI-H460. Nature of the assay: Cytotoxicity against human H460 cells.
A further assay deals with MCF7. The assay can be described thus: Cytotoxicity against human MCF7 cells.

Converted amounts (≈) assume the structure as drawn.

As to `CCC(C)C(=O)c1c(O)c(CC=C(C)C)c2oc(=O)cc(-c3ccccc3)c2c1O` (configuration not stated), the GI50 (as a rule, the concentration that inhibits growth by half) with SF-268 is 0.1 µg/mL (≈ 0.246 µM); in the assay with NCI-H460, 0.1 µg/mL (≈ 0.246 µM); in the assay on MCF7, 0.2 µg/mL (≈ 0.492 µM).

In the case of `COc1c(C(=O)CC(C)C)c(O)c(CC=C(C)C)c2oc(=O)cc(-c3ccccc3)c12`, the GI50 in the assay on SF-268 worked out at 0.4 µg/mL (≈ 0.951 µM); in the assay on NCI-H460, 0.5 µg/mL (≈ 1.19 µM); in the assay on MCF7 it was 0.4 µg/mL (≈ 0.951 µM).

As for `CC(C)=CCc1c(O)cc(O)c2c(-c3ccccc3)cc(=O)oc12`, the concentration for 50% growth inhibition (GI50) worked out at 4.8 µg/mL (≈ 14.9 µM) in the assay on SF-268, 4.4 µg/mL (≈ 13.6 µM) in the assay on NCI-H460 and 3.4 µg/mL (≈ 10.5 µM) in the assay with MCF7.

For the molecule `CCC(C)C(=O)c1c2c(c3oc(=O)cc(-c4ccccc4)c3c1O)C=CC(C)(C)O2` (configuration not stated), the GI50 in the assay with SF-268 was more than 10 µg/mL; in the assay with NCI-H460, more than 10 µg/mL; in the assay on MCF7 it was 9.6 µg/mL (≈ 23.7 µM).

For the molecule `CC1(C)CCc2c(cc(O)c3c(-c4ccccc4)cc(=O)oc23)O1`, the GI50 with SF-268 came out at 7.8 µg/mL (≈ 24.2 µM); in the assay on NCI-H460, 6.7 µg/mL (≈ 20.8 µM); in the assay on MCF7, 5.7 µg/mL (≈ 17.7 µM).

As for `CCC(=O)c1c2c(c3oc(=O)cc(-c4ccccc4)c3c1O)CCC(C)(C)O2`, the GI50 is 6.8 µg/mL (≈ 18 µM) with SF-268, 5.7 µg/mL (≈ 15.1 µM) in the assay on NCI-H460 and 4.7 µg/mL (≈ 12.4 µM) in the assay with MCF7.

Turning to `CCC(C)C(=O)c1c2c(c3oc(=O)cc(-c4ccccc4)c3c1O)C[C@@H](C(C)(C)O)O2` (some centres not stated), the 50% growth inhibitory concentration (GI50) in the assay with SF-268 was 4.8 µg/mL (≈ 11.4 µM); in the assay on NCI-H460, 4.4 µg/mL (≈ 10.4 µM); in the assay on MCF7, 3.4 µg/mL (≈ 8.05 µM).

Take `CCC(C)C(=O)c1c(O)c(CC=C(C)C)c(O)c2c(-c3ccccc3)cc(=O)oc12` (configuration not stated): the GI50 in the assay on SF-268 is 0.1 µg/mL (≈ 0.246 µM); in the assay on NCI-H460, 0.3 µg/mL (≈ 0.738 µM); with MCF7, 0.2 µg/mL (≈ 0.492 µM).

Consider `CC(C)CC(=O)c1c2c(c3oc(=O)cc(-c4ccccc4)c3c1O)C[C@@H](C(C)(C)O)O2` [CYCLOMAMMEISIN], for which the 50% growth inhibitory concentration (GI50) in the assay with SF-268 is 5.2 µg/mL (≈ 12.3 µM); with NCI-H460 it was 4.6 µg/mL (≈ 10.9 µM); with MCF7, 4.2 µg/mL (≈ 9.94 µM).

Regarding `C=C(C)C(O)Cc1c(O)c(C(=O)CC(C)C)c(O)c2c(-c3ccccc3)cc(=O)oc12` (configuration not stated) [DISPARINOL A], the GI50 with SF-268 was 0.5 µg/mL (≈ 1.18 µM); in the assay with NCI-H460 it was 0.6 µg/mL (≈ 1.42 µM); in the assay on MCF7, 0.9 µg/mL (≈ 2.13 µM).

Regarding `CC(C)CC(=O)c1c(O)cc(O)c2c(-c3ccccc3)cc(=O)oc12` [ISODISPAR B], the 50% growth inhibitory concentration (GI50) was 1.8 µg/mL (≈ 5.32 µM) in the assay on SF-268, 1.9 µg/mL (≈ 5.62 µM) in the assay on NCI-H460 and 1.5 µg/mL (≈ 4.43 µM) in the assay with MCF7.

`CC(C)=CCc1c(O)c(C(=O)CC(C)C)c2oc(=O)cc(-c3ccccc3)c2c1O` [ISOMAMMEISIN]: the GI50 with SF-268 came to 0.6 µg/mL (≈ 1.48 µM); in the assay with NCI-H460, 0.8 µg/mL (≈ 1.97 µM); in the assay with MCF7 it was 0.7 µg/mL (≈ 1.72 µM).

Take `CC(C)=CCc1c(O)c(C(=O)C(C)C)c2oc(=O)cc(-c3ccccc3)c2c1O` [ISOMESUOL]: the GI50 in the assay with SF-268 was 0.6 µg/mL (≈ 1.53 µM); with NCI-H460, 0.6 µg/mL (≈ 1.53 µM); in the assay on MCF7, 0.7 µg/mL (≈ 1.78 µM).

On to `CC(C)CC(=O)c1c2c(c3oc(=O)cc(-c4ccccc4)c3c1O)C=CC(C)(C)O2` [MAMMEIGIN], for which the GI50 with SF-268, with NCI-H460 and in the assay on MCF7 was more than 10 µg/mL in each case.

For `CC(=O)Oc1c(C(=O)CC(C)C)c(OC(C)=O)c2c(-c3ccccc3)cc(=O)oc2c1CC=C(C)C` [MAMMEISIN DIACETATE], the GI50 is 0.5 µg/mL in the assay with SF-268, 0.6 µg/mL in the assay with NCI-H460 and 0.6 µg/mL in the assay with MCF7.

For the molecule `CC(C)=CCc1c(O)c(C(=O)CC(C)C)c(O)c2c(-c3ccccc3)cc(=O)oc12` [MAMMEISIN], the figures for the GI50 in the assay on SF-268, with NCI-H460 and in the assay on MCF7 were 0.1 µg/mL (≈ 0.246 µM), 0.2 µg/mL (≈ 0.492 µM) and 0.2 µg/mL (≈ 0.492 µM), respectively.

In the case of `CC(C)C(=O)c1c2c(c3oc(=O)cc(-c4ccccc4)c3c1O)C=CC(C)(C)O2` [MESUAGIN], the concentration for 50% growth inhibition (GI50) with SF-268, in the assay on NCI-H460 and in the assay with MCF7 was more than 10 µg/mL each time.

Turning to `CC(C)C(=O)c1c2c(c3oc(=O)cc(-c4ccccc4)c3c1O)C[C@@H](C(C)(C)O)O2` [MESUOL CYCLO F], the concentration for 50% growth inhibition (GI50) stood at 6.4 µg/mL (≈ 15.7 µM) with SF-268, 6.1 µg/mL (≈ 14.9 µM) in the assay on NCI-H460 and 5.8 µg/mL (≈ 14.2 µM) in the assay with MCF7.

For the molecule `CC(C)=CCc1c(O)c(C(=O)C(C)C)c(O)c2c(-c3ccccc3)cc(=O)oc12` [MESUOL], the GI50 was 0.1 µg/mL (≈ 0.255 µM) in the assay on SF-268, 0.3 µg/mL (≈ 0.764 µM) with NCI-H460 and 0.2 µg/mL (≈ 0.51 µM) with MCF7.
